Assay [1] concerns Glo-Response ARE-luc2P HEK293 cell line. As to the kind of experiment: ARE luciferase reporter cell-based assay.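 Also: luciferase signal tracks Nrf2 activation of the ARE once compounds disrupt KEAP1-Nrf2 binding, read with One-Glo reagent, DMSO serving as low control.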 The following applies: average of results obtained. (In general: A reporter such as luciferase makes a cellular process visible.)
Assay [2] concerns the target Kelch domain of human KEAP1 (321-624 aa) (Homo sapiens (Human), UniProt Q14145). As to the kind of experiment: KEAP1 KELCH ThermoFluor binding assay.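 Also: Ligand-induced melting temperature shift of E. coli-expressed KEAP1 Kelch protein, Kd estimated from concentration-response curves of ΔTm.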 The settings on record: KEAP Kelch […], 1,8-ANS, pH 7.0, average of results obtained, read-out: Tf Kd. Background: Differential scanning fluorimetry follows unfolding on heating by fluorescence.

Drawing on US10947252B2, “Inhibitors of KEAP1-Nrf2 protein-protein interaction” (Janssen Pharmaceutica NV, priority 2018, dated 2021), this text covers EC50 and Kd for 18 compounds.

Where a name gives a salt, the structure may show the parent alone.

Sequence of Kelch domain of human KEAP1 (321-624 aa) (Q14145 321-624): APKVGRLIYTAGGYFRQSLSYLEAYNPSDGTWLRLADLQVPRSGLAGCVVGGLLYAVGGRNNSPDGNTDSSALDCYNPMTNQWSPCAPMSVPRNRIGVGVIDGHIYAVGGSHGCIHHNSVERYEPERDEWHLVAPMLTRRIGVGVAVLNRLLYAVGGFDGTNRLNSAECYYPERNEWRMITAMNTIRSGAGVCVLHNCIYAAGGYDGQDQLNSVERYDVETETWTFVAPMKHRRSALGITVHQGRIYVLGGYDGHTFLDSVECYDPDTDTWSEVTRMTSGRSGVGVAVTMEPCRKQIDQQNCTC

For `CCn1nnc2c(C)c(C(CC(=O)O)c3ccc(C)c(CN4C[C@@H]5CCCN5c5ncccc5S4(=O)=O)c3)ccc21` (mixture of isomers) [Example 155, (R/S)-3-(3-(((S)-5,5-Dioxido-7a,8,9,10-tetrahydropyrido[2,3-f]pyrrolo[2,1-d][1,2,5]thiadiazepin-6(7H)-yl)methyl)-4-methylphenyl)-3-(1-ethyl-4-methyl-1H-benzo[d][1,2,3]triazol-5-yl)propanoic Acid], in assay [1] (Homo sapiens, HEK293, 24 h), the response was half-maximal at 0.0061 µM (EC50). In addition, the Kd (as a rule, the equilibrium constant for the complex coming apart) in assay [2] was < 0.001 µM. For `CC[C@@H]1CN(Cc2cc(C(CC(=O)O)c3ccn4c(C)nnc4c3)ccc2C)S(=O)(=O)c2cccnc2O1` (mixture of isomers) [Example 162, (R/S)-3-(3-(((R)-4-Ethyl-1,1-dioxido-3,4-dihydro-2H-pyrido[2,3-b][1,4,5]oxathiazepin-2-yl)methyl)-4-methylphenyl)-3-(3-methyl-[1,2,4]triazolo[4,3-a]pyridin-7-yl)propanoic Acid], in that order: 2.44 µM and < 0.001 µM. As for `Cc1ccc(C(CC(=O)O)c2ccn3c(C4CC4)nnc3c2C)cc1CN1C[C@H]2CCCN2c2ncccc2S1(=O)=O` (mixture of isomers) [Example 167, (R/S)-3-(3-Cyclopropyl-8-methyl-[1,2,4]triazolo[4,3-a]pyridin-7-yl)-3-(3-(((R)-5,5-dioxido-7a,8,9,10-tetrahydropyrido[2,3-f]pyrrolo[2,1-d][1,2,5]thiadiazepin-6(7H)-yl)methyl)-4-methylphenyl)propanoic Acid], the midpoint of the response in assay [1] (Homo sapiens, HEK293, 24 h), the EC50, lay at 1.14 µM. Moreover, the Kd in assay [2] is < 0.001 µM.

As for `CC[C@@H]1CN(Cc2nc(C(CC(=O)O)c3ccc4c(nnn4C4CC4)c3C)ccc2C)S(=O)(=O)c2cccnc2O1` (mixture of isomers) [Example 174, (R/S)-3-(1-Cyclopropyl-4-methyl-1H-benzo[d][1,2,3]triazol-5-yl)-3-(6-(((R)-4-ethyl-1,1-dioxido-3,4-dihydro-2H-pyrido[2,3-b][1,4,5]oxathiazepin-2-yl)methyl)-5-methylpyridin-2-yl)propanoic Acid], the EC50 (in general, the concentration that produces a half-maximal response) in assay [1] (Homo sapiens, HEK293, 24 h) came to 0.015 µM. In assay [2], the Kd was < 0.001 µM. The corresponding values for `CC[C@@H]1CN(Cc2cc(C(CC(=O)O)c3ccn4c(C(F)(F)F)nnc4c3C)ccc2C)S(=O)(=O)c2cccnc2O1` (mixture of isomers) [Example 188, (R/S)-3-(3-(((R)-4-ethyl-1,1-dioxido-3,4-dihydro-2H-pyrido[2,3-b][1,4,5]oxathiazepin-2-yl)methyl)-4-methylphenyl)-3-(8-methyl-3-(trifluoromethyl)-[1,2,4]triazolo[4,3-a]pyridin-7-yl)propanoic acid] are 0.017 µM and < 0.001 µM. The corresponding values for `Cc1ccc(C(CC(=O)O)c2ccc3c(nnn3C3CC3)c2C)cc1CN1C[C@H]2CCCN2c2ncccc2S1(=O)=O` (mixture of isomers) [Example 209, (R/S)-3-(1-Cyclopropyl-4-methyl-1H-benzo[d][1,2,3]triazol-5-yl)-3-(3-(((R)-5,5-dioxido-7a,8,9,10-tetrahydropyrido[2,3-f]pyrrolo[2,1-d][1,2,5]thiadiazepin-6(7H)-yl)methyl)-4-methylphenyl)propanoic Acid] are 0.0088 µM and < 0.001 µM.

Take `Cc1ccc(C(CC(=O)O)c2cc(OC(F)F)c3c(c2)nnn3C)cc1CN1C[C@H]2CCCN2c2ncccc2S1(=O)=O` (mixture of isomers) [Example 246, 3-(7-(Difluoromethoxy)-1-methyl-1H-benzo[d][1,2,3]triazol-5-yl)-3-(3-(((R)-5,5-dioxido-7a,8,9,10-tetrahydropyrido[2,3-f]pyrrolo[2,1-d][1,2,5]thiadiazepin-6(7H)-yl)methyl)-4-methylphenyl)propanoic Acid and its Trifluoroacetic Acid Salt]: in assay [1] (Homo sapiens, HEK293, 24 h), the EC50 came out at 0.0873 µM. Besides, in assay [2], the Kd was < 0.001 µM. `CC[C@@H]1CN(Cc2cc(C(CC(=O)O)c3cc(OC(F)F)c4c(c3)nnn4C)ccc2C)S(=O)(=O)c2cccnc2O1` (mixture of isomers) [Example 249, 3-(7-(Difluoromethoxy)-1-methyl-1H-benzo[d][1,2,3]triazol-5-yl)-3-(3-(((R)-4-ethyl-1,1-dioxido-3,4-dihydro-2H-pyrido[2,3-b][1,4,5]oxathiazepin-2-yl)methyl)-4-methylphenyl)propanoic Acid and its Trifluoroacetic Acid Salt]: the EC50 in assay [1] (Homo sapiens, HEK293, 24 h) amounted to 0.0286 µM. The Kd in assay [2] was < 0.001 µM.

`Cc1cc2cc(C(CC(=O)O)c3ccc(C)c(CN4C[C@H]5CCCN5c5ncccc5S4(=O)=O)c3)n(C)c2nn1` (mixture of isomers) [Example 434, 3-(3,7-Dimethyl-7H-pyrrolo[2,3-c]pyridazin-6-yl)-3-(3-(((R)-5,5-dioxido-7a,8,9,10-tetrahydropyrido[2,3-f]pyrrolo[2,1-d][1,2,5]thiadiazepin-6(7H)-yl)methyl)-4-methylphenyl)propanoic Acid] returned an EC50 in assay [1] (Homo sapiens, HEK293, 24 h) of 3.87 µM. In addition, the Kd in assay [2] worked out at 0.00151 µM.

As for `Cc1cc2cc(C(CC(=O)O)c3ccc(C)c(CN4C[C@@H]5CCCN5c5ncccc5S4(=O)=O)c3)n(C)c2nn1` (mixture of isomers) [Example 437, 3-(3,7-Dimethyl-7H-pyrrolo[2,3-c]pyridazin-6-yl)-3-(3-(((S)-5,5-dioxido-7a, 8,9,10-tetrahydropyrido[2,3-f]pyrrolo[2,1-d][1,2,5]thiadiazepin-6(7H)-yl)methyl)-4-methylphenyl)propanoic Acid], in assay [1] (Homo sapiens, HEK293, 24 h), the EC50 is 4.38 µM. Besides, the Kd in assay [2] amounted to 0.00184 µM.

In assay [1] (Homo sapiens, HEK293, 24 h), `Cc1cc2cc(C(CC(=O)O)c3ccc(C)c(CN4C[C@@H]5CCCCN5c5ncccc5S4(=O)=O)c3)n(C)c2nn1` (mixture of isomers) [Example 440, 3-(3,7-Dimethyl-7H-pyrrolo[2,3-c]pyridazin-6-yl)-3-(3-(((S)-5,5-dioxido-7,7a,8,9,10,11-hexahydro-6H-dipyrido[2,1-d:2′,3′-f][1,2,5]thiadiazepin-6-yl)methyl)-4-methylphenyl)propanoic Acid] yielded a concentration giving a half-maximal response (EC50) of 0.714 µM. For the same compound, the Kd in assay [2] was < 0.001 µM. The corresponding values for `Cc1ccc(C(CC(=O)O)c2ccn3c(C(F)F)nnc3c2C)cc1CN1C[C@H]2CCCN2c2ncccc2S1(=O)=O` (mixture of isomers) [Example 449, 3-(3-(Difluoromethyl)-8-methyl-[1,2,4]triazolo[4,3-a]pyridin-7-yl)-3-(3-(((R)-5,5-dioxido-7a,8,9,10-tetrahydropyrido[2,3-f]pyrrolo[2,1-d][1,2,5]thiadiazepin-6(7H)-yl)methyl)-4-methylphenyl)propanoic Acid] are 0.0476 µM and < 0.001 µM. Regarding `Cc1cnc2c(c1)S(=O)(=O)N(Cc1cc([C@H](c3ccn4c(C(F)(F)F)nnc4c3C)C(C)(C)C(=O)O)cnc1C)CC1(CC1)O2` (single isomer, unassigned) [Example 573, (*S)-2,2-Dimethyl-3-(8-methyl-3-(trifluoromethyl)-[1,2,4]triazolo[4,3-a]pyridin-7-yl)-3-(6-methyl-5-((8′-methyl-1′,1′-dioxidospiro[cyclopropane-1,4′-pyrido[2,3-b][1,4,5]oxathiazepin]-2′(3′H)-yl)methyl)pyridin-3-yl)propanoic Acid], the Kd in assay [2] is < 0.001 µM.

Turning to `Cc1cnc2c(c1)S(=O)(=O)N(Cc1cc(C(c3ccn4c(C(F)(F)F)nnc4c3C)C(C)(C)C(=O)O)cnc1C)CC1(CC1)O2` (single isomer, unassigned) [Example 574, (*R)-2,2-Dimethyl-3-(8-methyl-3-(trifluoromethyl)-[1,2,4]triazolo[4,3-a]pyridin-7-yl)-3-(6-methyl-5-((8′-methyl-1′,1′-dioxidospiro[cyclopropane-1,4′-pyrido[2,3-b][1,4,5]oxathiazepin]-2′(3′H)-yl)methyl)pyridin-3-yl)propanoic Acid], the Kd in assay [2] turned out to be 6.75 µM. Still for that read-out and setting: to `Cc1ccc([C@@H](c2ccc3c(nnn3C3CC3)c2C)C(C)(C)C(=O)O)cc1CN1CC2(CC2)Oc2nc(N[C@@H](C)CN3CCCCC3)c(C)cc2S1(=O)=O` (single isomer, unassigned) [Example 659, (*S)-3-(1-Cyclopropyl-4-methyl-1H-benzo[d][1,2,3]triazol-5-yl)-2,2-dimethyl-3-(4-methyl-3-((8′-methyl-1′,1′-dioxido-7′-(((S)-1-(piperidin-1-yl)propan-2-yl)amino)spiro[cyclopropane-1,4′-pyrido[2,3-b][1,4,5]oxathiazepin]-2′(3′H)-yl)methyl)phenyl)propanoic Acid] belongs < 0.001 µM. Still for that read-out and setting: to `Cc1ccc([C@@H](c2ccn3c(C(F)(F)F)nnc3c2C)C(C)(C)C(=O)O)cc1CN1CC2(CC2)Oc2nc(OCCN3CCC(F)CC3)c(C)cc2S1(=O)=O` (single isomer, unassigned) [Example 661, (*S)-3-(3-((7′-(2-(4-fluoropiperidin-1-yl)ethoxy)-8′-methyl-1′,1′-dioxidospiro[cyclopropane-1,4′-pyrido[2,3-b][1,4,5]oxathiazepin]-2′(3′H)-yl)methyl)-4-methylphenyl)-2,2-dimethyl-3-(8-methyl-3-(trifluoromethyl)-[1,2,4]triazolo[4,3-a]pyridine-7-yl)propanoic Acid] belongs < 0.001 µM.

Turning to `Cc1cnc2c(c1)S(=O)(=O)N(Cc1cc(C(c3ccn4c(C(F)(F)F)nnc4c3)C(C)(C)C(=O)O)ccc1C)CC1(CC1)O2` (stereo not drawn) [Example 322, 2,2-Dimethyl-3-(4-methyl-3-((8′-methyl-1′,1′-dioxidospiro[cyclopropane-1,4′-pyrido[2,3-b][1,4,5]oxathiazepin]-2′(3′H)-yl)methyl)phenyl)-3-(3-(trifluoromethyl)-[1,2,4]triazolo[4,3-a]pyridin-7-yl)propanoic Acid], a half-maximal effect in assay [1] (Homo sapiens, HEK293, 24 h) (EC50) was put at 0.0224 µM. `Cc1cnc2c(c1)S(=O)(=O)N(Cc1cc(C(c3ccn4c(C(F)(F)F)nnc4c3C)C(C)(C)C(=O)O)ccc1C)CC1(CCOCC1)O2` (stereo not drawn) [Example 406, 2,2-Dimethyl-3-(4-methyl-3-((8′-methyl-1′,1′-dioxido-2,3,5,6-tetrahydrospiro[pyran-4,4′-pyrido[2,3-b][1,4,5]oxathiazepin]-2′(3′H)-yl)methyl)phenyl)-3-(8-methyl-3-(trifluoromethyl)-[1,2,4]triazolo[4,3-a]pyridin-7-yl)propanoic Acid] returned an EC50 in assay [1] (24 hours) of 0.0036 µM.
